# Experimental data taken from patent US8153441B2, “Method for analyzing structure and purity of serotonin transporter imaging agent [123 I] ADAM and precursor SnADAM” (Institute of Nuclear Energy Research Atomic Energy Council, priority 2008, dated 2012).
# Assays:
# [1] = Solution stability experiment of SnADAM-MeOH solution (HPLC purity after storage at room temperature); format: physicochemical; settings: for Purity of tested samples: room temperature
# Method: 15.3 ppm, 153 ppm and 306 ppm SnADAM (test sample)-MeOH solutions were prepared and stored at room temperature for three days, and then continuously subjected to HPLC analysis. Meanwhile, a portion of fresh 10-320 ppm SnADAM-MeOH solution is prepared each day to serve as calibration standard sample. The SnADAM chromatographic peak retention time (tR), linear least square regression equation, correlation coefficient (r), purity of the test sample, SD, and RSD of the calibration sample were calculated. Referring to Table 5, the linear correlation coefficients of the fresh calibration standards prepared in three days were all greater than 0.9996. After the test sample was stored at room temperature for three days, the SnADAM retention time RSD=0.31%, and the mean purity RSD=0.05%.
# [2] = Forced degradation experiment of SnADAM (HPLC); format: physicochemical
# Method: Three portions of 0.50 mg SnADAM were dissolved in MeOH solvent, respectively added with 1 M HCl solution, 1 M NaOH solution, and 3% H2O2 solution, and then reacted at room temperature for 30 min. The first two portions of solutions were respectively neutralized with 1 M NaOH and 1 M HCl and then added with suitable amounts of MeOH to dissolve the precipitate, while the third portion of solution was directly diluted with a suitable amount of MeOH after the reaction and then subjected to HPLC analysis. Another portion of 0.50 mg SnADAM was heated in an oven at 80° C. for 30 min, dissolved in MeOH solvent, and then subjected to HPLC analysis. […] Therefore, SnADAM can be separated from the impurities (as shown in FIG. 2) and the degradation products (as shown in FIGS. 3A-3D) without interfering with the quantitative results.
structure (smiles),measurement,setting,value
"CCC[CH2][Sn]([CH2]CCC)([CH2]CCC)[c]1ccc(Sc2ccccc2CN(C)C)c(N)c1 [SnADAM, 2-((2-((Dimethylamino)methyl)phenyl)thio)-5-(tri-n-butyltin)-phenylamine]",Purity of tested samples,"[1]; SnADAM-MeOH solution 15.3 ppm, day 1","98.17 ± 0.17 (0.18%, n = 3)"
same,Purity of tested samples,"[1]; SnADAM-MeOH solution 15.3 ppm, day 2","98.12 ± 0.21 (0.21%, n = 3)"
same,Purity of tested samples,"[1]; SnADAM-MeOH solution 15.3 ppm, day 3","97.96 ± 0.73 (0.74%, n = 3)"
same,Purity of tested samples,"[1]; SnADAM-MeOH solution 153.0 ppm, day 1","97.12 ± 0.15 (0.15%, n = 3)"
same,Purity of tested samples,"[1]; SnADAM-MeOH solution 153.0 ppm, day 2","97.00 ± 0.25 (0.26%, n = 3)"
same,Purity of tested samples,"[1]; SnADAM-MeOH solution 153.0 ppm, day 3","97.12 ± 0.04 (0.04%, n = 3)"
same,Purity of tested samples,"[1]; SnADAM-MeOH solution 306.0 ppm, day 1","96.77 ± 0.07 (0.07%, n = 3)"
same,Purity of tested samples,"[1]; SnADAM-MeOH solution 306.0 ppm, day 2","96.73 ± 0.06 (0.06%, n = 3)"
same,Purity of tested samples,"[1]; SnADAM-MeOH solution 306.0 ppm, day 3","96.70 ± 0.20 (0.20%, n = 3)"
same,Stability of SnADAM-MeOH solution (change in purity),[1]; stored at room temperature for three days,no significant change in purity
same,Forced degradation,"[2]; 1 M HCl solution, room temperature, 30 min",two major degradation products FD1 (tR=1.55 min) and FD2 (tR=1.80 min)
same,Forced degradation,"[2]; 1 M NaOH solution, room temperature, 30 min",a major degradation product FD1 (tR=1.55 min)
same,Forced degradation,"[2]; 3% H2O2 solution, room temperature, 30 min",a major degradation product FD1 (tR=1.55 min) having the same retention time as H2O2
same,Forced degradation,[2]; heated in an oven at 80° C. for 30 min,little effect on the degradation
